Assay results reported in patent US20190328763A1, “A LIPID NANOPARTICLE FOR CARRYING ANTISENSE OLIGONUCLEOTIDES INHIBITING BCL-2 AND METHOD FOR PREPARING THE SAME” (NANJING LUYE PHARMACEUTICAL CO., LTD., priority 2016, published 2019).
Like-named read-outs stand apart in the source and are kept apart here. d = 2'-deoxy (DNA); m = 2'-O-methyl

Experiments:
Type in all cases: cell-based
A549 cells = assay: A549 lung cancer cytotoxicity test (MTS); details: Homo sapiens, paclitaxel 1 nmol/L-100 μmol/L, antisense oligonucleotide fixed 10 μmol/L
Procedure: (1) We placed A549 cells in 96-well plates, and made the cells grow in an RPMI1640 culture solution containing 10% fetal calf serum to allow the cells to grow overnight to achieve a plating rate of 60-70%.
(2) A toxicity test of multiple paclitaxel (PTX) concentration gradients (1 nmol/L-100 μmol/L) and antisense oligonucleotide concentrations (10 μmol/L) in each group was conducted with each concentration group on the second day, and each concentration group was incubated in a 37 degree and 5% CO2 environment.
(3) 20 ul of MTS reagent (a novel tetrazole compound) was added at different time points 24 h, 48 h, and 72 h, and the detection was performed at a wavelength of 490 nm and the results were as shown in the following table: […]

bcl-2 messenger RNA [1] = assay: Gene level (Bcl-2) G3139 regulation experiment, Real-Time-PCR, LNCaP prostate cancer cells; details: for Ratio (bcl-2/β-actin): 1 μM G3139, 4 h incubation then 48 h culture, control group 100%
Procedure: (§1) (1) We will place cancer cells, such as A549 cells, KB cells, and LNCaP prostate cancer cells in 6-well plates and make the cells grow in an RPMI1640 culture solution containing 10% fetal calf serum to allow the cells to grow overnight to achieve a plating rate of 80%.
(§2) (3) After incubation in an environment of 37 degrees and 5% CO2 for 4 h, the cells will be transferred to a fresh culture solution and the culture will last for 48 h. Cells were collected, lysed, and extracted RNA according to standard methods.
(§3) (4) We will analyze the levels of bcl-2 messenger RNA in each group with the Real-Time-PCR technology, and we can finally quantify the expression of bcl-2 after treatment in each group according to the standard methods of reagent suppliers.

bcl-2 messenger RNA [2] = assay: Gene level (Bcl-2) G3139 regulation experiment, Real-Time-PCR, A549 lung cancer cells; details: for Ratio (bcl-2/β-actin): 1 μM G3139, 4 h incubation then 48 h culture, control group 100%
Procedure: as §1, §2, §3

bcl-2 messenger RNA [3] = assay: Gene level (Bcl-2) G3139 regulation experiment, Real-Time-PCR, KB cancer cells; details: for Ratio (bcl-2/β-actin): 1 μM G3139, 4 h incubation then 48 h culture, control group 100%
Procedure: as §1, §2, §3
By designing different sample groups, we regulate the levels of bcl-2 in KB cells.

Row | Compound | IC50 (A549 cells; 24 h, read-out: IC50 after 24 h) [nM] | IC50 (A549 cells; 48 h, read-out: IC50 after 48 h) [nM] | IC50 (A549 cells; 72 h, read-out: IC50 after 72 h) [nM] | gene-level down-regulation of bcl-2 (bcl-2 messenger RNA [1]; 1 μM G3139) [%] | Ratio (bcl-2/β-actin) (bcl-2 messenger RNA [1]) [%] | gene-level down-regulation of bcl-2 (bcl-2 messenger RNA [2]; 1 μM G3139) [%] | Ratio (bcl-2/β-actin) (bcl-2 messenger RNA [2]) [%] | gene-level down-regulation of bcl-2 (bcl-2 messenger RNA [3]; 1 μM G3139) [%] | Ratio (bcl-2/β-actin) (bcl-2 messenger RNA [3]) [%]
1 | CC(=O)O[C@H]1C(=O)[C@@]2(C)[C@H]([C@H](OC(=O)c3ccccc3)[C@]3(O)C[C@H](OC(=O)[C@H](O)[C@@H](NC(=O)c4ccccc4)c4ccccc4)C(C)=C1C3(C)C)[C@]1(OC(C)=O)CO[C@@H]1C[C@@H]2O [Paclitaxel (PTX) alone, Paclitaxel] | 75.6 | 28.5 | 17.9 | – | – | – | – | – | –
2 | 5′-UCU CCC AGC GTG CGC CAU-3′ (antisense UCUCCCAGCGTGCGCCAU; sugars from the 5' end m3 d12 m3, all phosphorothioate, methylation of C not given here) [free 2′-O-Me modified G3139] | – | – | – | 5.11 | 94.89 | 6.71 | 93.29 | 10.96 | 89.04
3 | 5′-TCT CCC AGC GTG CGC CAT-3′ (antisense TCTCCCAGCGTGCGCCAT; DNA, all phosphorothioate, methylation of C not given here) [free G3139] | – | – | – | – | 93.15 | – | 88.75 | – | 95.31
